Values of other authors, collected in article PMC7645643 (Engineering in Life Sciences, 2020).

Substance: Enfuvirtide [T-20]
- in vivo half-life: approximately 4 h
